From ChEMBL document CHEMBL3826909, “Quinoxaline-based inhibitors of Ebola and Marburg VP40 egress” (Bioorg Med Chem Lett, 2016)
Calls of active or inactive are those of the source. No cut-off for these calls is given here.

Tests used:
[1] = Cytotoxicity against African green monkey Vero E6 cells assessed as cell viability at 1 uM after 24 hrs by MTT assay relative to control; format: cell-based; conditions: chlorocebus sabaeus, read-out: Activity
[2] = Cytotoxicity against human HEK293T cells assessed as cell viability at 0.1 uM after 24 hrs by MTT assay relative to control; format: cell-based, HEK-293T; conditions: read-out: Activity
[3] = molecular target: T1, Matrix protein VP40 (Lake Victoria marburgvirus (strain Ravn-87) (MARV) (Marburg virus (strainKenya/Ravn/1987))) (UniProt Q1PDC8); assay: Inhibition of Marburg virus VP40 PPxY L-domain motif expressed in HEK293T cells assessed as reduction in VLP budding at 30 nM after 24 hrs by Western blot analysis relative to control; format: cell-based; conditions: HEK-293T
T1 sequence (whole entry): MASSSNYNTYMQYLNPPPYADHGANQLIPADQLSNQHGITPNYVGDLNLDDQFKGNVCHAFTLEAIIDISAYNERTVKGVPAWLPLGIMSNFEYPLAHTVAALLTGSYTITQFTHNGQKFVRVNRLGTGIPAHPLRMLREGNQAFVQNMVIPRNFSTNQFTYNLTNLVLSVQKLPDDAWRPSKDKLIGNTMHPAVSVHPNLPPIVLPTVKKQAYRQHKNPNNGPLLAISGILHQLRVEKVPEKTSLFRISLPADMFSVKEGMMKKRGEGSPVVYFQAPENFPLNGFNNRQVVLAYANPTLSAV

[4] = molecular target: T1, Matrix protein VP40 (Lake Victoria marburgvirus (strain Ravn-87) (MARV) (Marburg virus (strainKenya/Ravn/1987))); assay: Inhibition of Marburg virus VP40 PPxY L-domain motif expressed in HEK293T cells assessed as reduction in VLP budding at 0.03 uM relative to control; format: cell-based; conditions: HEK-293T
[5] = molecular target: T1, Matrix protein VP40 (Lake Victoria marburgvirus (strain Ravn-87) (MARV) (Marburg virus (strainKenya/Ravn/1987))); assay: Inhibition of Marburg virus VP40 PPxY L-domain motif expressed in HEK293T cells assessed as reduction in VLP budding at 0.1 uM relative to control; format: cell-based; conditions: HEK-293T
[6] = molecular target: T1, Matrix protein VP40 (Lake Victoria marburgvirus (strain Ravn-87) (MARV) (Marburg virus (strainKenya/Ravn/1987))); assay: Inhibition of Marburg virus VP40 PPxY L-domain motif expressed in HEK293T cells assessed as reduction in VLP budding at 100 nM after 24 hrs by Western blot analysis; format: cell-based; conditions: HEK-293T
[7] = Cytotoxicity against African green monkey Vero E6 cells assessed as cell viability at 10 uM after 24 hrs by MTT assay relative to control; format: cell-based; conditions: chlorocebus sabaeus, read-out: Activity
[8] = Cytotoxicity against human HEK293T cells assessed as cell viability at 0.01 uM after 24 hrs by MTT assay relative to control; format: cell-based, HEK-293T; conditions: read-out: Activity
[9] = molecular target: T1, Matrix protein VP40 (Lake Victoria marburgvirus (strain Ravn-87) (MARV) (Marburg virus (strainKenya/Ravn/1987))); assay: Inhibition of Marburg virus VP40 PPxY L-domain motif expressed in HEK293T cells assessed as reduction in VLP budding at 0.3 uM relative to control; format: cell-based; conditions: HEK-293T
[10] = Intrinsic clearance in mouse liver microsomes assessed per mg of protein; format: ADME
[11] = molecular target: T1, Matrix protein VP40 (Lake Victoria marburgvirus (strain Ravn-87) (MARV) (Marburg virus (strainKenya/Ravn/1987))); assay: Inhibition of Marburg virus VP40 PPxY L-domain motif expressed in HEK293T cells assessed as reduction in VLP budding at 1 uM relative to control; format: cell-based; conditions: HEK-293T
Liver microsome [12] = assay: Half life in human liver microsomes; format: ADME
[13] = Cytotoxicity against African green monkey Vero E6 cells assessed as cell viability at 0.1 uM after 24 hrs by MTT assay relative to control; format: cell-based; conditions: chlorocebus sabaeus, read-out: Activity
[14] = Half life in mouse liver microsomes; format: ADME
Liver microsome [15] = assay: Intrinsic clearance in human liver microsomes assessed per mg of protein; format: ADME
Cytochrome P450 3A4 = Cytochrome P450 3A4 (Homo sapiens, UniProt P08684); assay: Inhibition of CYP3A4 (unknown origin) using midazolam as substrate; format: ADME
[16] = Cytotoxicity against African green monkey Vero E6 cells assessed as cell viability at 0.01 uM after 24 hrs by MTT assay relative to control; format: cell-based; conditions: chlorocebus sabaeus, read-out: Activity
[17] = Cytotoxicity against human HEK293T cells assessed as cell viability at 10 uM after 24 hrs by MTT assay relative to control; format: cell-based, HEK-293T; conditions: read-out: Activity
[18] = Cytotoxicity against human HEK293T cells assessed as cell viability at 1 uM after 24 hrs by MTT assay relative to control; format: cell-based, HEK-293T; conditions: read-out: Activity
HEK-293T [19] = assay: Inhibition of Ebola virus VP40 PPxY L-domain motif expressed in HEK293T cells assessed as reduction in VLP budding at 100 nM after 24 hrs by Western blot analysis relative to control; format: cell-based; conditions: Ebolavirus
[20] = Effect on cellular protein levels in human HEK293T cells infected with recombinant Vesicular stomatitis virus-M40 expressing Ebola virus VP40 PPxY L-domain motif at 30 to 100 nM after 8 hrs by Western blot analysis relative to control; format: ADME, cell-based; conditions: hek-293t, 0.1 µM
HEK-293T [21] = assay: Inhibition of Ebola virus VP40 PPxY L-domain motif expressed in HEK293T cells assessed as reduction in VLP budding at 30 nM after 24 hrs by Western blot analysis relative to control; format: cell-based; conditions: Ebolavirus
[22] = molecular target: T1, Matrix protein VP40 (Lake Victoria marburgvirus (strain Ravn-87) (MARV) (Marburg virus (strainKenya/Ravn/1987))); assay: Inhibition of Marburg virus VP40 PPxY L-domain motif-Nedd4 interaction in HEK293T cells coexpressing NYFP-Nedd4 and CYFP-mVP40 at 0.1 uM by inverted confocal microscopy based bimolecular complementation assay; format: cell-based; conditions: HEK-293T
[23] = test system: Vesicular stomatitis virus; assay: Effect on viral protein levels in recombinant Vesicular stomatitis virus-M40 expressing Ebola virus VP40 PPxY L-domain motif infected in HEK293T cells at 30 to 100 nM after 8 hrs by Western blot analysis relative to control; format: ADME, organism-based; conditions: hek-293t, 0.1 µM

Cytochrome P450 3A4, sequence (P08684 whole entry): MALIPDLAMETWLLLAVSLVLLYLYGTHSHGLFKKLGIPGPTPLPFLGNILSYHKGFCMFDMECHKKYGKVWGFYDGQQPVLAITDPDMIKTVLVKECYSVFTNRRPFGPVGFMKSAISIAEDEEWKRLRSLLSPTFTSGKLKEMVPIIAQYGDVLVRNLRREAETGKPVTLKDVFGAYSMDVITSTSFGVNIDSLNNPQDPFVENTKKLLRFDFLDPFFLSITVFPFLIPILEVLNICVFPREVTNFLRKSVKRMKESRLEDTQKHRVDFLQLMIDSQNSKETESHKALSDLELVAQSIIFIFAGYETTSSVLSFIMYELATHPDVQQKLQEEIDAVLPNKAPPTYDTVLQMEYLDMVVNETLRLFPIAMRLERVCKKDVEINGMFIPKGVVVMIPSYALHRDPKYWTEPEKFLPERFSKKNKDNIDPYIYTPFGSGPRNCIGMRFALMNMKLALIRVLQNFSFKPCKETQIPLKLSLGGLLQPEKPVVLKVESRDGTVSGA

Row | Compound | viability at 24 h, 1 µM [1] | viability at 24 h, 0.1 µM [2] | inhibition [4] | inhibition [5] | inhibition [6] | viability at 24 h, 10 µM [7] | viability at 24 h, 0.01 µM [8] | t1/2 (Liver microsome [12]) | viability at 24 h, 0.1 µM [13] | t1/2 [14] | Intrinsic clearance (Liver microsome [15]) | IC50 (Cytochrome P450 3A4) | viability at 24 h, 0.01 µM [16] | viability at 24 h, 10 µM [17] | viability at 24 h, 1 µM [18] | further results
1 | Cc1ccc(NC(=O)NC(=O)CSc2nc3ccccc3nc2C)cc1 | 78.5% | 81.9% | 93% | 100% | > 90% | 69.8% | 98.3% | 57.7 min | 93.9% | < 1.4 min | 0.95 mL/min | > 33 µM | 98.4% | 52.8% | 61.8% | fold change (FC) [3]: 15; inhibition [9]: 100%; CLH [10]: > 50 mL/min; inhibition [11]: 100%
2 | Cc1nc2ccccc2nc1SCC(=O)NC(=O)Nc1ccccc1Cl | 79.1% | 69.3% | 93% | 99% | Active | 80.9% | 96.9% | 76.1 min | 101% | 2 min | 0.72 mL/min | > 33 µM | 101% | 65.4% | 63.9% | inhibition (HEK-293T [19]): Active; inhibition [3]: Active; Activity [20]: Non-toxic; inhibition (HEK-293T [21]): Active; inhibition [22]: Active; Activity [23]: Non-toxic
